# Test results taken from patent US20060035925A1, “SUBSTITUTED 4H-CHROMENES AND ANALOGS AS ACTIVATORS OF CASPASES AND INDUCERS OF APOPTOSIS AND THE USE THEREOF” (Cytovia, Inc., priority 1999, published 2006).
# Like-named read-outs stand apart in the source and are kept apart here.
# Legend:
# [1] = test system: Human breast cancer cell line ZR-75-1; experiment: Caspase cascade activation assay (N-(Ac-DEVD)-N'-ethoxycarbonyl-R110 fluorogenic substrate) in ZR-75-1 cells; format: cell-based; conditions: for Caspase activity (Ratio) ZR-75-1: 24 h incubation with compound, ratio of net RFU (T=3 h) of test compound to control
# Protocol: (§1) Human breast cancer cell lines T-47D and ZR-75-1 were grown according to media component mixtures designated by American Type Culture Collection +10% FCS (Invitrogen Corporation), in a 5% CO2-95% humidity incubator at 37° C. T-47D and ZR-75-1 cells were maintained at a cell density between 30 and 80% confluency at a cell density of 0.1 to 0.6×10^6 cells/ml. Cells were harvested at 600×g and resuspended at 0.65×10^6 cells/mL into appropriate media +10% FCS. An aliquot of 45 μl of cells was added to a well of a 96-well microtiter plate containing 5 μl of a 10% DMSO in RPMI-1640 media solution containing 0.16 to 10 μM of 2-amino-3-cyano-4-(3-bromo-4,5-dimethoxyphenyl)-4H-indolo[7,6-b]pyran (Example 42) or other test compound (0.016 to 1 μM final). An aliquot of 45 μl of cells was added to a well of a 96-well microtiter plate containing 5 μl of a 10% DMSO in RPMI-1640 media solution without test compound as the control sample. The samples were mixed by agitation and then incubated at 37° C. for 24 h in a 5% CO2-95% humidity incubator. After incubation, the samples were removed from the incubator and 50 μl of a solution containing 20 μM of N-(Ac-DEVD)-N′-ethoxycarbonyl-R110 (SEQ ID NO:1) fluorogenic substrate (Cytovia, Inc.; WO99/18856), 20% sucrose (Sigma), 20 mM DTT (Sigma), 200 mM NaCl (Sigma), 40 mM Na PIPES buffer pH 7.2 (Sigma), and 500 μg/ml lysolecithin (Calbiochem) was added. The samples were mixed by agitation and incubated at room temperature. Using a fluorescent plate reader (Model 1420 Wallac Instruments), an initial reading (T=0) was made approximately 1-2 min after addition of the substrate solution, employing excitation at 485 nm and emission at 530 nm, to determine the background fluorescence of the control sample. After the 3 h incubation, the samples were read for fluorescence as above (T=3 h).
# (§2) The Relative Fluorescence Unit values (RFU) were used to calculate the sample readings as follows: RFU(T=3h)−Control RFU(T=0)=Net RFU(T=3h)
# (§3) The activity of caspase cascade activation was determined by the ratio of the net RFU value for 2-amino-3-cyano-4-(3-bromo-4,5-dimethoxyphenyl)-4H-indolo[7,6-b]pyran or other test compound to that of control samples. The EC50 (nM) was determined by a sigmoidal dose-response calculation (Prism 2.0, GraphPad Software Inc.).
# [2] = test system: Human breast cancer cell line T-47D; experiment: Caspase cascade activation assay (N-(Ac-DEVD)-N'-ethoxycarbonyl-R110 fluorogenic substrate) in T-47D cells; format: cell-based; conditions: for Caspase activity (Ratio) T-47D: 24 h incubation with compound, ratio of net RFU (T=3 h) of test compound to control
# Protocol: as §1, §2, §3
# [3] = Homo sapiens, ZR-75-1, 24 h, ZR-75-1 cells, 24 h incubation, sigmoidal dose-response, read-out: Caspase potency EC50 (nM) ZR-75-1
# [4] = Homo sapiens, T47D, 24 h, 24 h incubation, sigmoidal dose-response, read-out: Caspase potency EC50 (nM) T-47D
# [5] = ZR-75-1 cells, 24 h incubation, sigmoidal dose-response, read-out: Caspase potency EC50 (nM) ZR-75-1
# [6] = 24 h incubation, sigmoidal dose-response, read-out: Caspase potency EC50 (nM) T-47D
# [7] = ZR-75-1 cells, additional compounds, Table II
Compound,"EC50 [1, 3]","EC50 [2, 4]",Caspase activity (Ratio) ZR-75-1 ([1]; ZR-75-1 cells),Caspase activity (Ratio) T-47D [2],further results
"COc1cc(C2C(C#N)=C(N)Oc3c2ccc(O)c3N)cc(Br)c1OC (centres unmarked) [Example 2I, 2-Amino-3-cyano-7-hydroxy-8-amino-4-(3-bromo-4,5-dimethoxyphenyl)-4H-chromene]",,50.4 nM,,6.2,
"COc1ccc2c(c1)OC(N)=C(C#N)C2c1ccccc1 (centres unmarked) [Example 26, 2-Amino-3-cyano-7-methoxy-4-phenyl-4H-chromene]",82 nM,140 nM,6.4,3.5,
"C1CCNCC1.C1CCNCC1.COc1cc(C2C(C#N)=C(N)Oc3c2ccc2[nH]ccc32)cc(Br)c1OP(=O)(O)O (centres unmarked) [Example 69, 2-Amino-3-cyano-4-(3-bromo-4-phosphoric acid-dipiperidine salt-5-methoxyphenyl)-4H-indolo[4,5-b]pyran]",,,5.6,3.5,"EC50 [1, 5]: 284 nM; EC50 [2, 6]: 582 nM"
"CCNc1ccc2c(c1)OC(N)=C(C#N)C2c1cccc(Br)c1 (centres unmarked) [Example 7, 2-Amino-3-cyano-7-ethylamino-4-(3-bromophenyl)-4H-chromene]",53 nM,108 nM,10.7,5.4,
"COc1ccc2c(c1)OC(N)=C(C#N)C2c1cccc([N+](=O)[O-])c1 (centres unmarked) [Example 11, 2-Amino-3-cyano-7-methoxy-4-(3-nitrophenyl)-4H-chromene]",28 nM,45 nM,6.6,4.5,
"COc1ccc2c(c1)OC(N)=C(C#N)C2c1cccc(Br)c1 (centres unmarked) [Example 6, 2-Amino-3-cyano-7-methoxy-4-(3-bromophenyl)-4H-chromene]",30 nM,54 nM,12.8,6.8,
"COc1cc(C2C(C#N)=C(N)Oc3c2ccc2nccnc32)cc(Br)c1OC (centres unmarked) [Example 79, 2-Amino-3-cyano-4-(3-bromo-4,5-dimethoxy-phenyl)-4H-pyrazino [2,3-h]chromene]",,,10.2,8.3,"EC50 [1, 5]: 103 nM; EC50 [2, 6]: 209 nM"
"CC1(c2ccccc2)C(C#N)=C(N)Oc2ccccc21 (centres unmarked) [Example 68B, 2-Amino-3-cyano-4-phenyl-4-methylchromene]",> 10000 nM,> 10000 nM,1.8,1.0,
"COc1cccc(C2C(C#N)=C(N)Oc3c2ccc2nccnc32)c1 (centres unmarked) [Example 78, 2-Amino-3-cyano-4-(3-methoxyphenyl)-4H-pyrazino[2,3-h]chromene]",,,3.6,1.8,"EC50 [1, 5]: 537 nM; EC50 [2, 6]: > 1000 nM"
"N#CC1=C(N)Oc2c(ccc3cc[nH]c23)C1c1cccc(C(F)(F)F)c1 (centres unmarked) [Example 54, 2-Amino-3-cyano-4-(3-trifluromethyl-phenyl)-4H-indolo[7,6-b]pyran]",,,7.5,7.3,"EC50 [1, 5]: 216 nM; EC50 [2, 6]: 314 nM"
"2-Amino-3-cyano-7-methoxy-4-(2,4-dimethoxypyrimidinyl)-4H-chromene [Example 27]",,,<2,<2,"EC50 [1, 5]: > 10000 nM; EC50 [2, 6]: > 10000 nM"
"N#CC1=C(N)Oc2cc(N)ccc2C1c1ccccc1 (centres unmarked) [2,7-Diamino-3-cyano-4-phenyl-4H-chromene]",,,,,"EC50 ([1]; Homo sapiens, ZR-75-1, ZR-75-1 cells, additional compounds, Table II, read-out: Caspase potency EC50 (nM) ZR-75-1, Table II): 2880 nM; Caspase activity (Ratio) ZR-75-1, Table II [1, 7]: 8.6; EC50 ([2]; Homo sapiens, T47D, additional compounds, Table II, read-out: Caspase potency EC50 (nM) T-47D, Table II): 5630 nM; Caspase activity (Ratio) T-47D, Table II ([2]; additional compounds, Table II): 6.3"
"CCC(C)C(=O)Nc1ccc2c(c1)OC(N)=C(C#N)C2c1cc(Br)c(OC)c(OC)c1 (centres unmarked) [2-Amino-3-cyano-7-(2-methylbutanoylamino)-4-(3-bromo-4,5-dimethoxyphenyl)-4H-chromene]",,,,,"Caspase activity (Ratio) ZR-75-1, Table II [1, 7]: Inactive; Caspase potency EC50 (nM) ZR-75-1, Table II [1, 7]: Inactive; Caspase activity (Ratio) T-47D, Table II ([2]; additional compounds, Table II): Inactive; Caspase potency EC50 (nM) T-47D, Table II ([2]; additional compounds, Table II): Inactive"
"COc1cccc(C2C3=CC=C4C=CN=C4C3OC(N)=C2C#N)c1 (centres unmarked) [Example 43, 2-Amino-3-cyano-4-(3-methoxyphenyl)-4H-indolo[7,6-b]pyran]",81.9 nM,143 nM,5.9,6.5,
"Cc1cc2c(cc1Cl)C(c1ccccc1)C(C#N)=C(N)O2 (centres unmarked) [Example 47, 2-Amino-6-chloro-3-cyano-7-methyl-4-phenyl-4H-chromene]",552 nM,> 1000 nM,7.3,1.9,
"N#CC1=C(N)OC2C3=CC=NC3=CC=C2C1c1cc(Cl)cc(Cl)c1 (centres unmarked) [Example 2F, 2-Amino-3-cyano-4-(3,5-dichlorophenyl)-4H-indolo[4,5-b]pyran]",26 nM,44 nM,4.4,4.7,

# Further lines, with some results ahead:
"EC50 [1, 3]","EC50 [2, 4]",Compound,Caspase activity (Ratio) ZR-75-1 ([1]; ZR-75-1 cells),Caspase activity (Ratio) T-47D [2],further results
16 nM,29 nM,"COc1ccc2c(c1)OC(N)=C(C#N)C2c1cc(OC)c(OC)c(OC)c1 (centres unmarked) [Example 3, 2-Amino-3-cyano-7-methoxy-4-(3,4,5-trimethoxyphenyl)-4H-chromene]",4.5,8.4,
16 nM,37 nM,"N#CC1=C(N)OC2C3=CC=NC3=CC=C2C1c1cc(F)cc(F)c1 (centres unmarked) [Example 2K, 2-Amino-3-cyano-4-(3,5-difluorophenyl)-4H-indolo[4,5-b]pyran]",6.9,5.6,
12 nM,27 nM,"CCNc1ccc2c(c1)OC(N)=C(C#N)C2c1cncc(C)c1 (centres unmarked) [Example 31, 2-Amino-3-cyano-7-ethylamino-4-(5-methyl-3-pyridyl)-4H-chromene]",11.0,7.9,
4 nM,7 nM,"CCNc1ccc2c(c1)OC(N)=C(C#N)C2c1cccc(OC)c1 (centres unmarked) [Example 15, 2-Amino-3-cyano-7-ethylamino-4-(3-methoxyphenyl)-4H-chromene]",6.3,5.9,
7 nM,7 nM,"COc1ccc2c(c1)OC(N)=C(C#N)C2c1cncc(Br)c1 (centres unmarked) [Example 33, 2-Amino-3-cyano-4-(5-bromo-3-pyridyl)-7-methoxy-4H-chromene]",10.4,7.0,
18.6 nM,36.8 nM,"COc1cc(C2C3=CC=C4C=CN=C4C3OC(N)=C2C#N)cc(Br)c1O (centres unmarked) [Example 51, 2-Amino-4-(3-bromo-4-hydroxy-5-methoxyphenyl)-3-cyano-4H-indolo[7,6-b]pyran]",6.7,11.5,
9 nM,14 nM,"COc1cc(OC)cc(C2C(C#N)=C(N)Oc3cc(OC)ccc32)c1 (centres unmarked) [Example 12, 2-Amino-3-cyano-7-methoxy-4-(3,5-dimethoxyphenyl)-4H-chromene]",6.7,6.1,
22.7 nM,26 nM,"COc1cc(OC)cc(C2C3=CC=C4C=CN=C4C3OC(N)=C2C#N)c1 (centres unmarked) [Example 52, 2-Amino-3-cyano-4-(3,5-dimethoxyphenyl)-4H-indolo[7,6-b]pyran]",9.9,11.8,
29 nM,39 nM,"COc1ccc2c(c1)OC(N)=C(C#N)C2c1cc(Cl)cc(Cl)c1 (centres unmarked) [Example 2E, 2-Amino-3-cyano-7-methoxy-4-(3,5-dichlorophenyl)-4H-chromene]",4.4,4.1,
